Patent US12084459B2, “2-(4-{1-[6-(4-isopropyl-phenyl)-imidazo[2,1-b][1,3,4]thiadiazol-2-yl]-piperidin-4-ylmethyl}-piperazin-1-yl)-ethanol and use thereof” (Urifer Ltd., priority 2020, dated 2024)

Legend:
[1] = insolubility level in PBS/Polysorbate-80 (Tween 80) solution; format: physicochemical; conditions: 0.5 mM and 1 mM in PBS/Polysorbate-80 (Tween 80) solution at 25° C. (FIG. 1A, 1B)
[2] = tested on: metastatic adenocarcinoma PC3 prostate Cancer cells; assay: viability / killing of PC3 cells; format: cell-based; conditions: E266 versus E260; compound (I) as tartarate salt in 0.5% Tween-80; FIG. 6
Protocol: (§1) The compound (I), as tartarate salt was dissolved in 0.5% Tween-80 to affect the viability of several cell lines as follows.
(§2) The effect of the compound (I) (E266) on the growth profile of cancer cells which express Fer was tested. The cells that were tested were: the metastatic colon cancer cell line—SW620, the metastatic pancreatic ductal-adenocarcinoma SU.86.86 cancer cell-line—SU.86.86, the metastatic Triple Negative breast cancer cell line—MDA-MB-231, and the metastatic prostate cancer cell-line—PC3. The effect of the compound (I) (E266) on FS11 cells, a non malignant fibroblastic cell line, was also studied.

normal Epithelial cells = assay: effect on normal epithelial cells; format: cell-based; conditions: FIG. 2
Protocol: Compound (I) was dissolved in 20% hydroxypropylcyclodextrane and the volume of administration (IP) was 10 ml/kg.

[3] = tested on: metastatic colon cancer SW620 cells; assay: viability / killing of SW620 cells; format: cell-based; conditions: E266 versus E260; compound (I) as tartarate salt in 0.5% Tween-80; FIG. 3
Protocol: as §1, §2

H358 derived xenografts = H358 derived xenografts in Nude mice; format: in vivo; conditions: 25 mg/kg daily intraperitoneal in 1% Tween 80, H358 xenografts, FIG. 7
Source text: In vivo activity of the E266 (compound (I) of the present application) compared to that of the E260 (EP 2401283) in H358 derived xenografts in immune-compromised (Nude) mice.
In order to compare the relative efficacy of E266 and E260 in inhibiting the development and progression of malignant tumors in-vivo, the activity in xenograft model in mice was examined for both compounds. H358 derived xenografts in immune-compromised were elicited in (Nude) mice. The H358 cells, which are metastatic bronchioloalveolar carcinoma (BAC)-non-small cell lung cancer (NSCLC) cells, were subcutaneously injected to the back of the nude mice. When the developing xenografts reached 100 mm^3 size, the inflicted animals were divided into three groups, 10 mice in each group. One group received daily intraperitoneal injection of the solvent 1% Tween 80. This solvent/emulsifier is biocompatible and is approved for pharmaceutical applications in humans. The second group received daily intraperitoneal injection of 25 mg/kg E260 dissolved in 1% Tween 80, and the third group got daily intraperitoneal injection of 25 mg/kg, E266 dissolved in the 1% Tween 80, solvent. The progression of the elicited xenografts was monitored by measuring twice a week the volumes of the developing tumors.

CC(C)c1ccc(-c2cn3nc(N4CCC(CN5CCN(CCO)CC5)CC4)sc3n2)cc1 [Compound E266, 2-(4-{1-[6-(4-isopropyl-phenyl)-imidazo[2,1-b][1,3,4]thiadiazol-2-yl]-piperidin-4-ylmethyl}-piperazin-1-yl)-ethanol]
solubility (insolubility level) [1]: soluble to a certain extent
killing metastatic adenocarcinoma PC3 prostate Cancer cells [2]: comparable activity
effect on normal Epithelial cells (normal Epithelial cells): no effect
killing metastatic colon cancer SW620 cells [3]: comparable activity
progression of the developing tumors (xenograft volume) (H358 derived xenografts): managed to halt the progression of the developing tumors
